The values that follow come from ChEMBL document CHEMBL3137667, “[Drug-induced liver injury; fourteenth updated edition of the bibliographic database of liver injuries and related drugs]” (Gastroenterol Clin Biol, 2004).

A short description of series [1]: Highest frequency of acute liver toxicity observed during clinical trials, expressed as a percentage. [column '% AIGUE' in source]. As to conditions: human.
For series [2] the following is noted: human.
Series [3] in a line: Times to onset, minimal and maximal, observed in the indexed observations. [column 'DELAI' in source]. As to conditions: human.
The conditions of series [4]: human, serum.
For series [5] the following is noted: human. This is another data set of the same source.
For series [6] the following is noted: human. This is another data set of the same source.
The conditions of series [7]: human. This is another data set of the same source.
The conditions of series [8]: human. The source holds these as a separate data set.
The conditions of series [9]: human. The source holds these as a separate data set.
For series [10] the following is noted: human. This is another data set of the same source.
For series [11] the following is noted: human, serum, 4383 h.
For series [12] the following is noted: human, serum. The source holds these as a separate data set.
A short description of series [13]: Highest frequency of moderate liver toxicity observed during clinical trials, expressed as a percentage. [column '% BIOL' in source]. As to conditions: human.
For series [14] the following is noted: human. This is another data set of the same source.
For series [15] the following is noted: human. The source holds these as a separate data set.

Molecules are shown by their SMILES. Where a SMILES comes first, the peptide text is derived from it. Bridges are numbered along the chain shown (N, C = ends). [ ]: non-standard residue; d: D form. The star is where a group is joined. NMePhe(4-NMe2) = CN[C@@H](Cc1ccc(N(C)C)cc1)C(=O)O; Pip(4-oxo) = O=C1CCN[C@H](C(=O)O)C1; Picolinoyl(3-OH) = O=C(c1ncccc1O)*; Phg = N[C@H](C(=O)O)c1ccccc1; dAbu = CC[C@@H](N)C(=O)O
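Wherever Hepatotoxicity (association with vascular disease) is given: count of indexed literature references reporting vascular liver injury in humans, e.g. peliosis hepatitis, hepatic veno-occlusive disease or Budd-Chiari syndrome.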
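Wherever Hepatotoxicity (benign tumour) is given: value is a count of indexed literature references citing a benign tumour confirmed by histopathology.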
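Wherever Hepatotoxicity (choleostasis) is given: human cholestatic liver injury, shown by histopathology or by peak ALT or AST elevation over alkaline phosphatase ratio below 2, value counts indexed literature reports.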
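Wherever Hepatotoxicity (chronic liver disease) is given: chronic liver injury confirmed by histopathology or persistently raised serum aminotransferase activity beyond 6 months, value given as the count of indexed literature references.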
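Wherever Hepatotoxicity (cirrhosis) is given: value is a count of indexed literature references reporting cirrhosis confirmed by histopathology.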
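Wherever Hepatotoxicity (cytolytic) is given: human cytolytic liver injury, shown by histopathology or by a ratio above 5 of peak ALT or AST elevation to alkaline phosphatase elevation, value counts indexed references.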
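Wherever Hepatotoxicity (granulomatous hepatitis) is given: value is a count of indexed literature references reporting granulomatous liver disease confirmed by histopathology.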
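Wherever Hepatotoxicity (malignant tumour) is given: malignant tumour confirmed by histopathology, value gives the count of indexed literature references reporting it.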
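Wherever Hepatotoxicity (severe hepatitis) is given: human clinical data: severe hepatitis, meaning potentially life-threatening liver failure or clinically observed cases, the value counts how many indexed literature references report it.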
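Wherever Hepatotoxicity (steatosis) is given: steatosis confirmed by histopathology, value is the count of indexed references.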

With `CC[C@H]1NC(=O)[C@@H](NC(=O)c2ncccc2O)[C@@H](C)OC(=O)[C@H](c2ccccc2)NC(=O)[C@@H]2CC(=O)CCN2C(=O)[C@H](Cc2ccc(N(C)C)cc2)N(C)C(=O)[C@@H]2CCCN2C1=O` [PRISTINAMYCIN 1A] ({Picolinoyl(3-OH)}-T[dAbu]P[NMePhe(4-NMe2)][Pip(4-oxo)][Phg]; ester 1-C), the “Hepatotoxicity (acute)” value was 0% in series [1] and 1 in [4]. Moreover, the “Hepatotoxicity (steatosis)” value in [2] amounted to 0. In series [3], the “Hepatotoxicity (time to onset)” value is 1.5 months. In addition, the “Hepatotoxicity (cytolytic)” value in series [5] amounted to 1. For the same compound, the “Hepatotoxicity (granulomatous hepatitis)” value in [6] stood at 0. Moreover, the “Hepatotoxicity (association with vascular disease)” value in [7] turned out to be 0. The “Hepatotoxicity (severe hepatitis)” value in [8] came out at 0. In [9], the “Hepatotoxicity (cirrhosis)” value came to 0. The “Hepatotoxicity (malignant tumour)” value in series [10] came to 0. For the same compound, the “Hepatotoxicity (chronic liver disease)” value in series [11] is 0. In addition, the “Hepatotoxicity (moderate)” value is reported as 0 in series [12] and 0% in [13]. The “Hepatotoxicity (choleostasis)” value in series [14] came to 0. The “Hepatotoxicity (benign tumour)” value in series [15] turned out to be 0.

Turning to `NC(=O)CCC/N=C(\c1ccc(Cl)cc1)c1cc(F)ccc1O` [PROGABIDE], the “Hepatotoxicity (acute)” value is given as 3.4% in series [1] and 6 in [4]. For the same compound, the “Hepatotoxicity (steatosis)” value in series [2] stood at 0. The “Hepatotoxicity (time to onset)” value in [3] came to 2 weeks - 6 months. For the same compound, the “Hepatotoxicity (cytolytic)” value in series [5] amounted to 4. Also, the “Hepatotoxicity (granulomatous hepatitis)” value in series [6] worked out at 0. In addition, in [7], the “Hepatotoxicity (association with vascular disease)” value is 0. Moreover, the “Hepatotoxicity (severe hepatitis)” value in series [8] was 4. In addition, in series [9], the “Hepatotoxicity (cirrhosis)” value stood at 0. Also, in series [10], the “Hepatotoxicity (malignant tumour)” value was found to be 0. Besides, the “Hepatotoxicity (chronic liver disease)” value in series [11] turned out to be 0. Moreover, the “Hepatotoxicity (moderate)” value in series [12] is on record as 6; in series [13], 30%. In [14], the “Hepatotoxicity (choleostasis)” value is 0. In addition, the “Hepatotoxicity (benign tumour)” value in series [15] turned out to be 0.

`[H]/N=C(\N/C(=N/[H])Nc1ccc(Cl)cc1)NC(C)C` [PROGUANIL]: the “Hepatotoxicity (acute)” value turned out to be 0% in [1] and 1 in [4]. The “Hepatotoxicity (steatosis)” value in [2] was determined as 0. Further, the “Hepatotoxicity (time to onset)” value in [3] stood at 6 weeks. In addition, the “Hepatotoxicity (cytolytic)” value in series [5] is 1. Moreover, the “Hepatotoxicity (granulomatous hepatitis)” value in series [6] came to 0. The “Hepatotoxicity (association with vascular disease)” value in [7] was found to be 0. In addition, the “Hepatotoxicity (severe hepatitis)” value in [8] is listed as 0. For the same compound, the “Hepatotoxicity (cirrhosis)” value in series [9] amounted to 0. Further, in series [10], the “Hepatotoxicity (malignant tumour)” value came to 0. In series [11], the “Hepatotoxicity (chronic liver disease)” value turned out to be 0. Besides, the entries for the “Hepatotoxicity (moderate)” value in [12] and in series [13] were 1 and 16%, respectively. The “Hepatotoxicity (choleostasis)” value in [14] was determined as 0. The “Hepatotoxicity (benign tumour)” value in series [15] is 0.

In the case of `CCC(=O)[C@@]1(C)CC[C@H]2[C@@H]3CCC4=CC(=O)CCC4=C3CC[C@@]21C` [PROMEGESTONE], the “Hepatotoxicity (acute)” value in series [1] is recorded as 0%; in [4], 0. For the same compound, the “Hepatotoxicity (steatosis)” value in series [2] worked out at 0. For the same compound, the “Hepatotoxicity (time to onset)” value in series [3] came out at 3 years. For the same compound, the “Hepatotoxicity (cytolytic)” value in series [5] was 0. Also, the “Hepatotoxicity (granulomatous hepatitis)” value in series [6] is 0. In addition, in series [7], the “Hepatotoxicity (association with vascular disease)” value amounted to 0. Also, in series [8], the “Hepatotoxicity (severe hepatitis)” value amounted to 0. Also, the “Hepatotoxicity (cirrhosis)” value in series [9] is 0. In addition, in series [10], the “Hepatotoxicity (malignant tumour)” value came out at 0. In [11], the “Hepatotoxicity (chronic liver disease)” value is reported as 0. Besides, the results for the “Hepatotoxicity (moderate)” value in series [12] and in [13] were 0 and 0%, respectively. Besides, the “Hepatotoxicity (choleostasis)” value in series [14] came out at 0. The “Hepatotoxicity (benign tumour)” value in series [15] amounted to 1.

Consider `CC(C)c1cccc(C(C)C)c1O` [PROPOFOL], for which the “Hepatotoxicity (acute)” value was 0% in [1] (Liver) and 2 in series [4]. Besides, in series [2], the “Hepatotoxicity (steatosis)” value was determined as 0. Moreover, the “Hepatotoxicity (time to onset)” value in [3] worked out at 1 day - 4 weeks. Further, the “Hepatotoxicity (cytolytic)” value in series [5] (Liver) is recorded as 1. In addition, the “Hepatotoxicity (granulomatous hepatitis)” value in series [6] (Liver) is given as 0. Also, the “Hepatotoxicity (association with vascular disease)” value in [7] is given as 0. Also, the “Hepatotoxicity (severe hepatitis)” value in series [8] (Liver) turned out to be 0. Also, the “Hepatotoxicity (cirrhosis)” value in [9] stood at 0. Besides, in [10], the “Hepatotoxicity (malignant tumour)” value came out at 0. In addition, the “Hepatotoxicity (chronic liver disease)” value in series [11] is 0. Also, the results for the “Hepatotoxicity (moderate)” value in series [12] and in series [13] (Liver) were 0 and 0%, respectively. Moreover, in series [14] (Liver), the “Hepatotoxicity (choleostasis)” value worked out at 1. Besides, the “Hepatotoxicity (benign tumour)” value in [15] worked out at 0.

With `Cc1c(C(C)C)c(=O)n(-c2ccccc2)n1C` [PROPYPHENAZONE], the “Hepatotoxicity (acute)” value in series [1] was determined as 0%; in [4], 3. The “Hepatotoxicity (steatosis)” value in [2] is 0. Also, in [3], the “Hepatotoxicity (time to onset)” value amounted to 2 days - 2 years. Further, the “Hepatotoxicity (cytolytic)” value in series [5] amounted to 1. In series [6], the “Hepatotoxicity (granulomatous hepatitis)” value is recorded as 2. Besides, the “Hepatotoxicity (association with vascular disease)” value in [7] came to 0. The “Hepatotoxicity (severe hepatitis)” value in [8] is given as 0. In addition, the “Hepatotoxicity (cirrhosis)” value in series [9] was found to be 0. In series [10], the “Hepatotoxicity (malignant tumour)” value is recorded as 0. Besides, in series [11], the “Hepatotoxicity (chronic liver disease)” value stood at 0. Moreover, the “Hepatotoxicity (moderate)” value in series [12] is listed as 0; in series [13], 0%. Besides, in series [14], the “Hepatotoxicity (choleostasis)” value came to 0. In [15], the “Hepatotoxicity (benign tumour)” value turned out to be 0.

Regarding `Fc1ccccc1C1=NCC(=S)N(CC(F)(F)F)c2ccc(Cl)cc21` [QUAZEPAM], the “Hepatotoxicity (acute)” value in series [1] was determined as 0%; in series [4], 0. Moreover, the “Hepatotoxicity (steatosis)” value in [2] was 0. The “Hepatotoxicity (time to onset)” value in series [3] was found to be 4 weeks. Moreover, the “Hepatotoxicity (cytolytic)” value in [5] turned out to be 0. Further, the “Hepatotoxicity (granulomatous hepatitis)” value in series [6] was determined as 0. Also, the “Hepatotoxicity (association with vascular disease)” value in series [7] is recorded as 0. Moreover, the “Hepatotoxicity (severe hepatitis)” value in series [8] is given as 0. The “Hepatotoxicity (cirrhosis)” value in [9] is on record as 0. In addition, in [10], the “Hepatotoxicity (malignant tumour)” value is recorded as 0. For the same compound, in [11], the “Hepatotoxicity (chronic liver disease)” value is 0. Also, the “Hepatotoxicity (moderate)” value in series [12] is listed as 1; in series [13], 0%. Also, in series [14], the “Hepatotoxicity (choleostasis)” value is 0. For the same compound, in [15], the “Hepatotoxicity (benign tumour)” value was determined as 0.

With `OCCOCCN1CCN(C2=Nc3ccccc3Sc3ccccc32)CC1` [QUETIAPINE], the “Hepatotoxicity (acute)” value in series [1] (Liver) was determined as 1.9%; in series [4], 1. Also, in series [2], the “Hepatotoxicity (steatosis)” value came out at 0. Also, in series [3], the “Hepatotoxicity (time to onset)” value came out at 1 week - 3 weeks. Also, the “Hepatotoxicity (cytolytic)” value in [5] (Liver) is listed as 1. For the same compound, the “Hepatotoxicity (granulomatous hepatitis)” value in [6] (Liver) was 0. For the same compound, the “Hepatotoxicity (association with vascular disease)” value in series [7] came out at 0. In addition, in series [8] (Liver), the “Hepatotoxicity (severe hepatitis)” value is 0. The “Hepatotoxicity (cirrhosis)” value in [9] is recorded as 0. Also, the “Hepatotoxicity (malignant tumour)” value in [10] was 0. Further, the “Hepatotoxicity (chronic liver disease)” value in [11] worked out at 0. In addition, the entries for the “Hepatotoxicity (moderate)” value in series [12] and in [13] (Liver) were 3 and 14.8%, respectively. The “Hepatotoxicity (choleostasis)” value in series [14] (Liver) worked out at 0. Also, in series [15], the “Hepatotoxicity (benign tumour)” value is on record as 0.
